Like-named read-outs stand apart in the source and are kept apart here. *: point of attachment. Boc = CC(C)(C)OC(=O)*
What was measured:
[1] = molecular target: T1, γ-secretase (Homo sapiens, UniProt P49768); test: Substrate specificity: FLAG-Aβ secretion by HEK293 cells transfected with FLAG APP C99, anti-FLAG immunoprecipitation/western blot; assay type: cell-based; conditions: for (i) Aβ secretion rate of HEK293 cells: 24 h, FLAG APP C99, negative control = 100%
Method: (§1) Of families constituting human Alcadein (hereinafter, referred to as Alc) known as a substrate for γ-secretase to colocalize with APP in brain neurons, an artificial Alcα fragment (hereinafter, referred to as Alcα C150) whose first extracellular cleavage site and γ-secretase cleavage site were determined was used to study the substrate specificity of the γ-secretase inhibitor of the present invention. β-Alcα produced from a first cleavage construct of Alcα cannot be quantified by sELISA used in Aβ measurement. Therefore, proteins with an attached FLAG tag at the N termini of first cleavage constructs of Alcα and of C99 were expressed by cells. FLAG-Aβ-like peptides secreted into a medium were collected by immunoprecipitation using anti-FLAG antibodies and detected by western blotting using the antibodies. A specific method thereof is shown below.
(§2) HEK293 cells (ATCC) (1×10^7 cells/10 cm dish) cultured in 6 ml of 10% FCS-containing DMEM (Wako Pure Chemical Industries, Ltd.) were transfected with FLAG APP C99 pcDNA3.1 (the nucleotide sequence of its coding region is shown in SEQ ID NO: 2) (J. Biol. Chem., 2003, 278, 49448-49458 (which was prepared from pcDNA3-APPC99)) or with FLAG Alcα C150 pcDNA3.1 (the nucleotide sequence of its coding region is shown in SEQ ID NO: 3) (J. Biol. Chem., 2004, 279, 24343-24354 (which was the same as pcDNA3AlcαΔE)) using Lipofectamine 2000 (Invitrogen Corp.) according to the protocol included in the reagent. Each inhibitor and a positive control (γ-Secretase Inhibitor IX (DAPT)) (Calbiochem Contact Information) were separately added at a concentration of 0.2 or 2 μmol/L. The same dose of DMSO (Wako Pure Chemical Industries, Ltd.) thereas was added as a negative control. 24 hours later, the culture supernatants were collected, and samples were preliminarily purified using beads (100 μL of 50% (v/v) Protein-G Sepharose (GE Healthcare)). Then, 15 μL of 50% (v/v) anti-FLAG antibody M2 beads (Sigma-Aldrich Corp.) were added thereto, and the samples were incubated at 4° C. for 1 hour. The beads were collected by centrifugation and washed three times with a buffer (10 mM Tris-HCl [pH 8.0], 140 mM NaCl, 0.1% n-octyl glucoside, 0.025% sodium azide), and Aβ and β-Alcα in the medium were collected. The proteins were subjected to SDS-PAGE using a 15% Tris-Tricine gel (Anal Biochem., 1987, 166 (2), 368-379) and then transferred to a membrane. The membrane was boiled for 5 minutes in PBS. Then, anti-FLAG M2 antibodies (5 μg/ml) (Sigma-Aldrich Corp.) were added thereto, and the membrane was incubated, followed by detection using a western blotting detection reagent ECL (GE Healthcare). This signal was quantified using Versa-doc system (Bio-Rad Laboratories, Inc.) to calculate protein secretion rates (the protein secretion rate of the negative control is defined as 100%).

[2] = molecular target: T1, γ-secretase; test: Substrate specificity: β-Alcα secretion by HEK293 cells transfected with FLAG Alcα C150, anti-FLAG immunoprecipitation/western blot; assay type: cell-based; conditions: for (ii) β-Alcα secretion rate of HEK293 cells: 24 h, FLAG Alcα C150, negative control = 100%
Method: as §1, §2

[3] = molecular target: T1, γ-secretase; test: Aβ secretion by C99 cells (HEK293 stably expressing APP-C99), γ-secretase inhibitory effect, Aβ ELISA of culture supernatant; assay type: cell-based; conditions: for IC50: interpolated from the two concentrations that bracket 50%
Source text: HEK293 cells (ATCC) were transfected with APP C99 pcDNA3.1 (the nucleotide sequence of its coding region is shown in SEQ ID NO: 1) (J. Biol. Chem., 2003, 278, 49448-49458). Cell strains (C99 cells) confirmed to stably express APP-C99 (artificial APP fragment that originally lacked a polypeptide portion to be cleaved by α- or β-secretase at the first stage in the two-stage reaction of Aβ production from APP) were used to study the γ-secretase inhibitory effects of four test substances (TLVM-5, TLVM-7, TLVM-8, and TLVM-9) in vitro.
(§3) In the present test, a medium used for the C99 cells was 500 mL of a Dulbecco's Modified Eagle's Medium (DMEM, Sigma-Aldrich Corp.) supplemented with 55 ml of fetal bovine serum (Biosource), 5.5 ml of MEM non-essential amino acids (Gibco), and 5.5 ml of penicillin/streptomycin (Gibco).
The C99 cells were suspended at a concentration of 5×10^4 cells/ml in the medium. The suspension was added at a concentration of 1 ml (5×10^4 cells)/well to a 24-well collagen plate (Akita Sumitomo Bakelite Co., Ltd.) and cultured for 3 days. Then, the medium in the wells was removed, and the wells were washed with a medium (1 ml/well). The medium was removed, and a fresh medium was then added thereto at a concentration of 0.4 ml/well. The cells were exposed to the test substances and positive controls and incubated for 24 hours, and the culture supernatants were collected. The positive controls used were L-685,458 (CALBIOCHEM) and Boc-Leu-Val-Met-Leu-OMe (hereinafter, referred to as LVML-1) disclosed in Example 1 of Patent Document 1 (WO03/091278). The exposure concentrations were set to four concentrations, 0.3, 1, 3, and 10 μmol/L, for all the test substances and the positive controls. The concentrations of Aβ (1-40) and Aβ (1-42) in the culture supernatants were measured using Human Amyloid β (1-40) (N) Assay Kit (L)-IBL and Human Amyloid β (1-42) (N) Assay Kit (L)-IBL (Immuno-Biological Laboratories, Co., Ltd.). The amounts of Aβ (1-40) and Aβ (1-42) secreted were calculated by subtracting the concentrations of Aβ (1-40) and Aβ (1-42) originally contained in the medium before the C99 cell inoculation, from the measured concentrations thereof, respectively. Moreover, when the Aβ secretion rate of a negative control (5% DMSO-containing medium, resulting in 1% DMSO at the final concentration) is defined as 100%, Aβ secretion rates at each concentration of the test substances and the positive controls were calculated.
The TLVM-5, TLVM-7, TLVM-8, and TLVM-9 confirmed in Example 8 to have strong inhibitory activities against γ-secretase activities were subjected to an additional experiment at low concentrations (exposure concentrations were set to three concentrations, […], for the test substances and to four concentrations, 0.1, 0.3, 1, and 3 μmol/L, for the positive control).
Moreover, Aβ secretion rates at two concentrations of the test substance that bracket the concentration at which Aβ secretion was inhibited by 50% (IC50) were used to calculate IC50 according to the following equation: IC50:10^[LOG(A/B)*(50−C)/(D−C)+LOG(B)],wherein
A: of the two points that bracket 50% inhibition, the higher concentration of the test substance,
B: of the two points that bracket 50% inhibition, the lower concentration of the test substance,
C: secretion rate (%) at the concentration B, and
D: secretion rate (%) at the concentration A.

[4] = test system: C99 cells; test: Cytotoxicity on C99 cells, cell viability by Cell Counting Kit-8; assay type: cell-based, human; conditions: 24 h
Method: The cytotoxicity of four test substances (TLVM-5, TLVM-7, TLVM-8, and TLVM-9) on the C99 cells was measured using a method shown below.
as §3
The C99 cells were suspended at a concentration of 0.75×10^5 cells/ml in the medium. The suspension was added at a concentration of 100 μL (0.75×10^4 cells)/well to a 96-well collagen plate (Akita Sumitomo Bakelite Co., Ltd.) and cultured for 2 days. Then, the medium (corresponding to 50 μL/well) in the wells was removed, and a fresh medium was added thereto at a concentration of 30 μL/well. […] Then, the cell viability was measured using Cell Counting Kit-8 (Dojindo Laboratories).

[5] = Example 8, exposure 0.3 μmol/L, 24 h
[6] = Example 8, exposure 0.3 μmol/L, 24 h, negative control = 100%
[7] = Example 8, exposure 1 μmol/L, 24 h
[8] = Example 8, exposure 3 μmol/L, 24 h
[9] = Example 8, exposure 10 μmol/L, 24 h

| Molecule | (i)/(ii) ratio, Aβ / β-Alcα secretion rates ([1]; 0.2 μmol/L) | (i) Aβ secretion rate of HEK293 cells ([1]; 0.2 μmol/L) [%] | (i)/(ii) ratio, Aβ / β-Alcα secretion rates ([1]; 2 μmol/L) | (i) Aβ secretion rate of HEK293 cells ([1]; 2 μmol/L) [%] | (ii) β-Alcα secretion rate of HEK293 cells ([2]; 0.2 μmol/L) [%] | (ii) β-Alcα secretion rate of HEK293 cells ([2]; 2 μmol/L) [%] | Aβ (1-42) secretion rate of C99 cells [3, 5] [%] | Aβ [(1-40) + (1-42)] secretion rate of C99 cells [3, 5] [%] | Aβ (1-40) secretion rate of C99 cells [3, 6] [%] | Aβ (1-40) secretion rate of C99 cells [3, 7] [%] | Aβ (1-42) secretion rate of C99 cells [3, 7] [%] | Aβ [(1-40) + (1-42)] secretion rate of C99 cells [3, 7] [%] | Aβ (1-40) secretion rate of C99 cells [3, 8] [%] | Aβ (1-42) secretion rate of C99 cells [3, 8] [%] | Aβ [(1-40) + (1-42)] secretion rate of C99 cells [3, 8] [%] | Aβ (1-40) secretion rate of C99 cells [3, 9] [%] | Aβ (1-42) secretion rate of C99 cells [3, 9] [%] | Aβ [(1-40) + (1-42)] secretion rate of C99 cells [3, 9] [%] | further results |
| --- | --- | --- | --- | --- | --- | --- | --- | --- | --- | --- | --- | --- | --- | --- | --- | --- | --- | --- | --- |
| C[C@H](NC(=O)Cc1cc(F)cc(F)c1)C(=O)N[C@H](C(=O)OC(C)(C)C)c1ccccc1 [DAPT, reference compound] | 0.35 | 8 | 1.26 | 20 | 23 | 16 | – | – | – | – | – | – | – | – | – | – | – | – | – |
| CC(C)C[C@H](NC(=O)[C@H](Cc1ccccc1)C[C@@H](O)[C@H](Cc1ccccc1)NC(=O)OC(C)(C)C)C(=O)N[C@@H](Cc1ccccc1)C(N)=O [L-685, 458, reference compound] | – | – | – | – | – | – | 96 | 101 | 101 | 68 | 70 | 68 | 38 | 49 | 39 | 9 | 24 | 9 | Aβ (1-40) secretion rate of C99 cells ([3]; Example 9, exposure 0.1 μmol/L): 114%; Aβ (1-42) secretion rate of C99 cells ([3]; Example 9, exposure 0.1 μmol/L): 97%; Aβ [(1-40) + (1-42)] secretion rate of C99 cells ([3]; Example 9, exposure 0.1 μmol/L): 113%; Aβ (1-40) secretion rate of C99 cells ([3]; Example 9, exposure 0.3 μmol/L): 90%; Aβ (1-42) secretion rate of C99 cells ([3]; Example 9, exposure 0.3 μmol/L): 91%; Aβ [(1-40) + (1-42)] secretion rate of C99 cells ([3]; Example 9, exposure 0.3 μmol/L): 90%; Aβ (1-40) secretion rate of C99 cells ([3]; Example 9, exposure 1 μmol/L): 72%; Aβ (1-42) secretion rate of C99 cells ([3]; Example 9, exposure 1 μmol/L): 87%; Aβ [(1-40) + (1-42)] secretion rate of C99 cells ([3]; Example 9, exposure 1 μmol/L): 73%; Aβ (1-40) secretion rate of C99 cells ([3]; Example 9, exposure 3 μmol/L): 32%; Aβ (1-42) secretion rate of C99 cells ([3]; Example 9, exposure 3 μmol/L): 8%; Aβ [(1-40) + (1-42)] secretion rate of C99 cells ([3]; Example 9, exposure 3 μmol/L): 31%; IC50 ([3]; Example 9, read-out: IC50, Aβ (1-40) secretion of C99 cells): 1.8 µM; IC50 ([3]; Example 9, read-out: IC50, Aβ (1-42) secretion of C99 cells): 1.7 µM; Cell viability of C99 cells ([4]; exposure 0.3 μmol/L): 133%; Cell viability of C99 cells ([4]; exposure 1 μmol/L): 125%; Cell viability of C99 cells ([4]; exposure 3 μmol/L): 110%; Cell viability of C99 cells ([4]; exposure 10 μmol/L): 99% |
| CSCC[C@H](NC(=O)[C@H](C)NC(=O)[C@H](CC(C)C)C[C@@H](O)[C@@H](NC(=O)OC(C)(C)C)[C@@H](C)O)C(=O)NCc1ccccc1 [TLVM-10, [5S-(tert-butoxycarbonylamino)-4R,6R-dihydroxy-2R-(2-methylpropyl)heptanoyl]-L-alanyl-L-methionine benzylamide] | – | – | 0.39 | 37 | – | 94 | – | – | – | – | – | – | – | – | – | – | – | – | cleavage of APP-C99, in words ([1]; 2 μmol/L): specifically inhibited; γ cleavage of the Alcα-C150, in words ([2]; 2 μmol/L): did not inhibit |
| CSCC[C@H](NC(=O)[C@@H](NC(=O)[C@H](CC(C)C)C[C@@H](O)[C@@H](NC(=O)OC(C)(C)C)[C@@H](C)O)c1ccccc1)C(=O)NCc1ccccc1 [TLVM-11, [5S-(tert-butoxycarbonylamino)-4R,6R-dihydroxy-2R-(2-methylpropyl)heptanoyl]-L-phenylglycyl-L-methionine benzylamide] | 0.12 | 8 | – | – | 68 | – | – | – | – | – | – | – | – | – | – | – | – | – | cleavage of APP-C99, in words ([1]; 0.2 μmol/L): specifically inhibited; γ cleavage of the Alcα-C150, in words ([2]; 0.2 μmol/L): did not inhibit |
| Boc-Leu-Val-Met-Leu-OMe (Boc-LVML-OMe; SMILES COC(=O)[C@H](CC(C)C)NC(=O)[C@H](CCSC)NC(=O)[C@@H](NC(=O)[C@H](CC(C)C)NC(=O)OC(C)(C)C)C(C)C) [LVML-1, reference compound] | – | – | – | – | – | – | 95 | 138 | 140 | 112 | 78 | 110 | 106 | 104 | 105 | 83 | 61 | 82 | – |

Source: patent US8501813B2, “γ-secretase inhibitor” (Kabushiki Kaisha Yakult Honsha, priority 2007, dated 2013)
